Results: publication PMC6467724 (Journal of medicinal chemistry, 2018)

Legend:
[1] = Microsomal stability assay, human liver microsomes; type: in vitro ADME
[2] = Microsomal stability assay, rat liver microsomes; type: in vitro ADME, rat (male Sprague-Dawley)
[3] = Microsomal stability assay, mouse liver microsomes; type: in vitro ADME, mouse (male CD-1)
[4] = PK and tissue distribution assay, single oral dose; type: in vivo, BALB/c mice; conditions: Balb/c mice, single oral dose 25 mg/kg
[5] = mice, oral doses up to 200 mg/kg; cited from earlier work
[6] = mice, 40 mg/kg oral dose; cited from earlier work
[7] = cited from earlier work

Structure (SMILES)	Clint (estimated intrinsic clearance), Human ([1]; human pooled liver microsomes 0.5 mg/mL, 1 μM test compound) [mL/min/kg body weight]	Clhep (hepatic clearance), Human ([1]; predicted from Clint, Qh 21 mL/min/kg) [mL/min/kg body weight]	Clhep (hepatic clearance), Rat ([2]; predicted from Clint, Qh 70 mL/min/kg) [mL/min/kg body weight]	Clint (estimated intrinsic clearance), Rat ([2]; rat pooled liver microsomes 0.5 mg/mL, 1 μM test compound) [mL/min/kg body weight]	Clint (estimated intrinsic clearance), Mouse ([3]; mouse pooled liver microsomes 0.5 mg/mL, 1 μM test compound) [mL/min/kg body weight]	Clhep (hepatic clearance), Mouse ([3]; predicted from Clint, Qh 90 mL/min/kg) [mL/min/kg body weight]	Plasma life time (time until the compound becomes undetectable) [4] [h]	Acute toxicity [5]	Maximal reported plasma concentration [6] [µM]	Maximal concentration detected in humans, fold lower than in mice [7] [fold]
O=C(N[C@@H](Cn1ccnc1)c1ccc(-c2ccc(F)cc2)cc1F)c1ccc(-c2nnc(-c3ccccc3)o2)cc1 [VFV, (R)-N-(1-(3,4′-difluoro-[1,1′-biphenyl]-4-yl)-2-(1H-imidazol-1-yl)ethyl)-4-(5-phenyl-1,3,4-oxadiazol-2-yl)benzamide, reference compound]	29.9	12.3	14.2	17.7	145	55.6	>24	no acute toxicity	–	–
O=C(N[C@@H](Cn1ccnc1)c1ccc(Cl)cc1Cl)c1ccc(-c2nnc(-c3ccccc3)o2)cc1 [VNI, (R)-N-(1-(2,4-dichlorophenyl)-2-(1H-imidazol-1-yl)ethyl)-4-(5-phenyl-1,3,4-oxadiazol-2-yl)benzamide]	–	–	–	–	–	–	–	no acute toxicity	–	–
CC[C@@H]([C@H](C)O)n1ncn(-c2ccc(N3CCN(c4ccc(OC[C@@H]5CO[C@@](Cn6cncn6)(c6ccc(F)cc6F)C5)cc4)CC3)cc2)c1=O [posaconazole]	–	–	–	–	–	–	–	–	6	5 to 10
